Source: patent US20220290237A1, “METHOD FOR PREDICTING THE RESPONSE OF ANTIPSYCHOTIC DRUGS” (INSERM (INSTITUT NATIONAL DE LA SANTÉ ET DE LA RECHERCHE …, priority 2019, published 2022)

Tested on: total RNA from PBMCs
Experiment: RNA-seq gene expression before and after 4 weeks of amisulpride treatment
Type: in vivo, human
Details: 4 weeks amisulpride
Excerpt: The cohort analysed in this study was obtained from the OPTiMiSE clinical trial (http://www.optimisetrial.eu) (29). After providing written informed consent, 491 patients with a first episode psychosis were included and 453 started medication. All patients were diagnosed with schizophrenia, schizophreniform disorder or schizoaffective disorder according to the Diagnostic and Statistical Manual of Mental Disorders, Fourth Edition (DSM-IV) and confirmed on the basis of the Mini International Neuropsychiatric Interview Plus (M.I.N.I. Plus) (30) (table 4). At baseline, patients were medication-naïve or minimally-treated (any antipsychotic medication used for […] 2 weeks in the previous year or for a total of 6 weeks in their lifetime) and were ill for no longer than 2 years. Only subjects involved in the single-treatment arm (phase 1) of the trial were considered for this study (29). All patients were treated for 4 weeks with amisulpride (200-800 mg/day orally). At the end of the 4-week treatment, the blood concentration of antipsychotic used has been determined. This measurement provided a reliable indication of the treatment compliance of individual patients.
A DNase digestion procedure was added after extraction. Total RNA was purified using the RNA Clean & Concentrator™-5 kit following the manufacturer's instructions (Zymo Research Corp., Irvine, USA). RNA quantification was performed on a NanoDrop™ 8000 spectrophotometer, in duplicate. The quality and integrity of the RNA samples were assessed using an Agilent Bioanalyzer 2100 and the RNA6000 Nano Labchip kit (Agilent Technologies). Only samples with an RNA integrity number (RIN) higher than 7 were selected. Three hundred and seventy-six RNA samples fulfilled quality control criteria for RNA-seq analyses, corresponding to two RNA samples (one at inclusion and one after 4 weeks of treatment) for 188 subjects. Forty-eight additional RNAs were available for replication studies, in 24 independent subjects.
All libraries were prepared using the Illumina TruSeq Stranded Total RNA with Ribo-Zero Globin kit (Illumina Inc., San Diego, Calif., U.S.A.), which removes ribosomal RNA and globin mRNA. Libraries were prepared using one microgram of total RNA as initial input and following the standard protocols. After library quality control, 2×100 bp paired-end (PE) sequencing was performed on a HiSeq4000 system (Illumina), pooling a maximum of 6 samples on each lane, in order to reach 40 to 50 million of PE-reads for each sample. The Illumina pipeline was used to generate raw RNA sequencing data (fastq files) for each sample. Sequence quality controls were performed, using FastQC and in-house bioinformatics pipelines, from a sampling of 2×10 million reads in order to assess the levels of read duplicates, adapters, remaining rRNA and the GC content. Reads were trimmed for adapters and low-quality bases (Phred quality score <30) using Trimmomatic software (v.0.32). Reads were then mapped to the Genome Reference Consortium human genome assembly 37 (GRCh37) reference genome (hg19) using Tophat software (v.2.0.13). Read mapping quality was assessed using RNA-SeQC software. Then, gene-level quantification in read counts was performed by HTSeq software (v.0.6.1), using gene annotation from Ensembl v.86. All downstream analyses were conducted using the statistical software R (v.3.2.4) and Bioconductor R packages. Genes with counts-per million (cpm) below 1 in more than two third of the samples were considered unexpressed and removed from the analysis using edgeR package (v.3.12.1). Raw gene counts matrix has been normalized to account for differences in sequencing depth and RNA composition using the “median ratio” method implemented in the DESeq2 package (v.1.16.1). To avoid batch effects as confounding factors, all subjects had their 2 time-points in a same batch. […]

SMILES: CCN1CCCC1CNC(=O)c1cc(S(=O)(=O)CC)c(N)cc1OC (centres unmarked) [amisulpride, 4-amino-N-((1-ethyl-2-pyrrolidinyl)methyl)-5-(etgylsulfonyl)-2-methoxybenzamide]
- FC, fold-change at week 4 relative to the expression level at inclusion: AC073172.1 (good responders (n = 113)): 0.72
- FC, fold-change at week 4 relative to the expression level at inclusion: AC073172.1 (poor responders (n = 75)): 0.97
- FC, fold-change at week 4 relative to the expression level at inclusion: AC092171.4 (good responders (n = 113)): 0.85
- FC, fold-change at week 4 relative to the expression level at inclusion: AC092171.4 (poor responders (n = 75)): 1.06
- FC, fold-change at week 4 relative to the expression level at inclusion: AC132872.1 (good responders (n = 113)): 0.81
- FC, fold-change at week 4 relative to the expression level at inclusion: AC132872.1 (poor responders (n = 75)): 1.05
- FC, fold-change at week 4 relative to the expression level at inclusion: ACSL5 (good responders (n = 113)): 1.06
- FC, fold-change at week 4 relative to the expression level at inclusion: ACSL5 (poor responders (n = 75)): 0.99
- FC, fold-change at week 4 relative to the expression level at inclusion: AL133351.4 (good responders (n = 113)): 0.88
- FC, fold-change at week 4 relative to the expression level at inclusion: AL133351.4 (poor responders (n = 75)): 1.04
- FC, fold-change at week 4 relative to the expression level at inclusion: AL391832.3 (good responders (n = 113)): 0.88
- FC, fold-change at week 4 relative to the expression level at inclusion: AL391832.3 (poor responders (n = 75)): 1.00
- FC, fold-change at week 4 relative to the expression level at inclusion: ALG1L13P (good responders (n = 113)): 0.89
- FC, fold-change at week 4 relative to the expression level at inclusion: ALG1L13P (poor responders (n = 75)): 1.02
- FC, fold-change at week 4 relative to the expression level at inclusion: ALPL (good responders (n = 113)): 0.79
- FC, fold-change at week 4 relative to the expression level at inclusion: ALPL (poor responders (n = 75)): 1.09
- FC, fold-change at week 4 relative to the expression level at inclusion: AP000640.1 (good responders (n = 113)): 0.84
- FC, fold-change at week 4 relative to the expression level at inclusion: AP000640.1 (poor responders (n = 75)): 1.00
- FC, fold-change at week 4 relative to the expression level at inclusion: C15orf54 (good responders (n = 113)): 1.18
- FC, fold-change at week 4 relative to the expression level at inclusion: C15orf54 (poor responders (n = 75)): 1.07
- FC, fold-change at week 4 relative to the expression level at inclusion: CA4 (good responders (n = 113)): 0.76
- FC, fold-change at week 4 relative to the expression level at inclusion: CA4 (poor responders (n = 75)): 1.07
- FC, fold-change at week 4 relative to the expression level at inclusion: CXCR6 (good responders (n = 113)): 1.14
- FC, fold-change at week 4 relative to the expression level at inclusion: CXCR6 (poor responders (n = 75)): 1.03
- FC, fold-change at week 4 relative to the expression level at inclusion: CYSLTR2 (good responders (n = 113)): 1.13
- FC, fold-change at week 4 relative to the expression level at inclusion: CYSLTR2 (poor responders (n = 75)): 1.01
- FC, fold-change at week 4 relative to the expression level at inclusion: DGAT2 (good responders (n = 113)): 0.87
- FC, fold-change at week 4 relative to the expression level at inclusion: DGAT2 (poor responders (n = 75)): 1.08
- FC, fold-change at week 4 relative to the expression level at inclusion: DHRS13 (good responders (n = 113)): 0.87
- FC, fold-change at week 4 relative to the expression level at inclusion: DHRS13 (poor responders (n = 75)): 1.04
- FC, fold-change at week 4 relative to the expression level at inclusion: FAT1 (good responders (n = 113)): 1.27
- FC, fold-change at week 4 relative to the expression level at inclusion: FAT1 (poor responders (n = 75)): 1.20
- FC, fold-change at week 4 relative to the expression level at inclusion: FBXL13 (good responders (n = 113)): 0.85
- FC, fold-change at week 4 relative to the expression level at inclusion: FBXL13 (poor responders (n = 75)): 0.92
- FC, fold-change at week 4 relative to the expression level at inclusion: GALNT14 (GALNT14, good responders (n = 113)): 0.78
